Values of other authors, collected in publication PMC12018205, “Mutant protein chemical rescue: From mechanisms to therapeutics” (The Journal of Biological Chemistry, 2025).

Columns and labels:
Q227L Gα (Gsα subunit) = conditions: substrate-assisted catalysis
[1] = tested on: S-mandelate dehydrogenase R277G mutant; parameters: method as in PMID 10955993
[2] = tested on: R359C GS (glutamine synthetase); parameters: method as in PMID 7912599; conditions: for rescue of kcat / reactivation of R359C mutant: covalent modification of Cys
[3] = tested on: aspartate aminotransferase K258C mutant; parameters: method as in PMID 1907854; conditions: aminoethylation of K258C
galactocerebrosidase = tested on: galactocerebrosidase; parameters: method as in PMID 24913062; conditions: Krabbe disease
mutant p53 tumors = tested on: mutant p53 tumors; parameters: method as in PMID 10617466; conditions: mouse xenograft studies
[4] = tested on: mutant α-galactosidase A (GalA); parameters: method as in PMID 9883849; conditions: prevents aggregation in the endoplasmic reticulum
[5] = tested on: clostridial GDH D156S mutant
[6] = tested on: trehalose phosphorylase R507A mutant; parameters: method as in PMID 18205830; conditions: up
[7] = tested on: rat pancreatic carboxypeptidase A R127M mutant; parameters: method as in PMID 1304353
[8] = tested on: rat pancreatic carboxypeptidase A R127A mutant; parameters: method as in PMID 1304353; conditions: up
[9] = tested on: AS B (asparagine synthetase B) Arg325 to Ala mutant; parameters: method as in PMID 9139684; conditions: 50 mM rescue agent
[10] = tested on: ornithine transcarbamylase R57G variant
mutant forms of CFTR = tested on: mutant forms of CFTR; parameters: method as in PMID 19846789; conditions: some mutant forms; epithelial cell membranes
[11] = tested on: N370S-mutant β-glucosidase; parameters: method as in PMID 12434014
HDAC8 = tested on: HDAC8; parameters: method as in PMID 26463496; conditions: multiple forms
[12] = tested on: pyruvate kinase C9S/C268S/K221C triple mutant; conditions: aminoethylation of K221C
[13] = tested on: Lys80-mutant leucine dehydrogenase; conditions: One M; from 1.5% unrescued
[14] = tested on: E361G-mutant β-galactosidase; conditions: E361G mutant rescued
[15] = tested on: Y51A-mutant xylose reductase; conditions: NAD+-dependent oxidation of xylitol
tripeptidyl peptidase I = tested on: tripeptidyl peptidase I; parameters: method as in PMID 20340139; conditions: one form
I278T CBS = tested on: I278T CBS; parameters: method as in PMID 17540596
[16] = tested on: rationally designed proteins and temperature-sensitive library mutants in yeast
[17] = tested on: Paenibacillus sp. dextranase glutamate mutants; conditions: high concentration of 2.4 M
[18] = tested on: cytomegalovirus protease assemblin His to Gly mutant; parameters: method as in PMID 16036911; conditions: in vitro and in mammalian cells
[19] = tested on: Csk, Src, and Abl kinases Arg to Ala mutants
[20] = tested on: β-class carbonic anhydrase Asp34 to Ala mutant; parameters: method as in PMID 12107142; conditions: without affecting kcat/KM
[21] = tested on: SpyCas9 H840A and H840G mutants; parameters: method as in PMID 33428390; conditions: 100 mM; both H840 mutants
subtilisin H64A mutant = tested on: subtilisin H64A mutant; parameters: method as in PMID 2059622; conditions: much lesser degree than His-containing substrate
H122G NDPK = tested on: H122G NDPK; parameters: method as in PMID 10200157
[22] = tested on: R388A v-Src in SYF MEF cells; conditions: live cells, FRET-based cell sensor
[23] = tested on: β-glycosidase (β-gly) W33G mutant; parameters: method as in PMID 22655749
[24] = tested on: Y14G-mutant ketosteroid isomerase; conditions: 2 mM
Y319A TbtD = conditions: 10 mM
[25] = tested on: mutant PAH (phenylalanine hydroxylase); conditions: PAH stabilization and enhancement of enzyme kinetics

For “3,4-diamino-benzophenone phosphonoamidate-GTP [DABP-GTP]”, the “GTPase activity rescue with GTP analog as substrate” value (Q227L Gα (Gsα subunit)) is listed as “nearly WT activity”.
For `CN(C)C(=N)N` [1,1-dimethylguanidine], the “effectiveness as rescue agent” value [1] is given as “not effective”.
For `Cn1ccnc1` [1-methylimidazole], the “effectiveness as rescue agent” value [1] is listed as “not effective”.
For `N=C(N)CCl` [2-CA, 2-chloroacetamidine], the “kcat restored, % of the value of the WT enzyme” value ([2]; R359C GS after covalent modification of Cys) is given as 70%.
In the case of `NCCBr` [2-bromoethylamine], the “enzymatic activity restored, % of WT aspartate aminotransferase” value [3] is given as 7%.
In the case of `NCCCBr` [3-bromopropylamine], the “rescue of kcat / reactivation of R359C mutant” value [2] is given as “could not reactivate”.
For `O=c1c(-c2ccc(O)c(O)c2)coc2cc(O)ccc12` [3′,4′,7-trihydroxyisoflavone], the rescue of galactocerebrosidase (galactocerebrosidase) is given as “rescued”.
In the case of `COc1ccc(/C=C/c2nc(NCCCN(C)C)c3ccccc3n2)cc1` [CP-31398], the effect on tumors (mutant p53 tumors) is given as “shrunk tumors”.
For `OC[C@H]1NC[C@H](O)[C@@H](O)[C@H]1O` [DGJ, deoxygalactonojirimycin], the “effect of binding on mutant GalA” value [4] is given as “stabilize mutant GalA”.
For `N=C(N)CSSCC(=N)N` [DTBA, 2,2′-dithiobis(acetamidine)], the “rescue of kcat / reactivation of R359C mutant” value [2] is given as “hardly affected”.
For `F` [Fluoride, fluoride], the “maximum extent of rescue, forward reaction, increase over baseline” value [5] is listed as 1000 fold, the “maximum extent of rescue, reverse reaction, increase over baseline” value [5] is listed as 4 fold and the EC50 ([5]; read-out: Kr, reverse reaction, reductive amination) is listed as 40 mM.
In the case of `N=C(N)N` [Guanidine], the “enhancement of enzymatic activity” value [6] is listed as “up to 50 fold”, the “rescue of the R127M mutant” value [7] is listed as “rescued” and the “increase in kcat of the R127A mutant” value [8] is listed as “up to 100 fold”.
In the case of `Cl.N=C(N)N` [Guanidinium hydrochloride], the “specific activity restored, % of the WT enzyme” value [9] is given as ~15%, the “rescued kcat, within % of the WT enzyme” value ([10]; R57G variant) is given as ≤ 10% and the stimulation of kcat ([10]; R57G variant) is given as 2000 fold. The EC50 ([10]; R57G variant, read-out: half-maximal rescue concentration (Kr)) was 22 mM.
In the case of `CC(C)(C)c1cc(C(C)(C)C)c(NC(=O)c2c[nH]c3ccccc3c2=O)cc1O` [Ivacaftor], the “effect on mutant CFTR” value (mutant forms of CFTR) is given as “enhances their presence and transport function”.
In the case of `CCCCCCCCCN1C[C@H](O)[C@@H](O)[C@H](O)[C@H]1CO` [N-(n-nonyl)deoxynojirimycin], the “effect on mutant β-glucosidase stability and trafficking to the lysosome” value [11] is given as “shows promise in promoting the stability”.
In the case of `O=C(NC(=S)Nc1ccccc1)c1ccccc1` [N-(phenylcarbamothioyl)-benzamide], the “rescue of HDAC8 mutants” value (HDAC8) is given as “partially or fully rescued”.
For `O=C(NCCI)C(F)(F)F` [N-[2-iodoethyl]trifluoroacetamide], the “activity rescued, % of the WT pyruvate kinase activity” value [12] is given as 4.5%.
For `CC(=O)O` [acetate], the “enhancement of D189S trypsin activity” value (D189S trypsin) is listed as “could enhance the activity” and the “rescue for substrates bearing Arg at P1 versus Lys” value (D189S trypsin; D189S trypsin) is listed as 10 fold.
For `N` [ammonia], the “deamination activity restored, % of WT leucine dehydrogenase” value [13] is given as 20%.
In the case of `N=C(N)NCCC[C@H](N)C(=O)O` [arginine], the “restoration of R57G variant activity” value [10] is listed as “not”.
For `[N-]=[N+]=[N-]` [azide], the “enhancement in transglycosylation activity over the WT enzyme” value [14] is given as 177 fold.
For `Br` [bromide ion], the “rescue of Y51A-mutant xylose reductase” value [15] is listed as “partially rescued”.
In the case of `C[S+](C)[O-]` [dimethyl sulfoxide], the “rescue of tripeptidyl peptidase I” value (tripeptidyl peptidase I) is listed as “partially rescued”, the “rescue of I278T CBS by chemical chaperones” value (I278T CBS) is listed as “partially rescued” and the “extent of rescue in vivo” value [16] is listed as “weak”.
For `CCNC(=N)N` [ethylguanidine], the “increase in kcat of the R127A mutant” value [8] is given as “up to 100 fold”.
In the case of `O=CO` [formate], the “rescue of glutamate mutants” value [17] is given as “effective” and the “enhancement in transglycosylation activity over the WT enzyme” value [14] is given as 177 fold.
In the case of `N=C(N)N` [guanidinium], the “extent of rescue in vivo” value [16] is listed as “weak”.
For `c1c[nH]cn1` [imidazole], the “complementation of lost proteolytic activity” value [18] is given as “complemented efficiently”, the “rescue of activity of Arg to Ala mutants” value [19] is given as > 100 fold and the EC50 ([19]; read-out: EC50 of tyrosine kinase rescue) is given as ~5 mM. For the same molecule, the “rescue of kcat defect” value [20] was “rescued this defect in kcat”, the “rescue of in vitro nuclease activity” value [21] was “substantially rescued” and the “restoration of catalytic activity” value (subtilisin H64A mutant) was “partially restored”. The “rescue of kcat/KM,ATP” value (H122G NDPK; ATP) was 40 fold, the “rescued kcat/KM,ATP, fold below that of the WT enzyme” value (H122G NDPK; ATP) was 50 fold and the “kcat/KM,ATPγS, fold higher than the unrescued condition” value (H122G NDPK; ATPγS) was 100 fold. For the same molecule, the “rescued kcat/KM,ATPγS, fold below WT” value (H122G NDPK; ATPγS) was 2 fold, the pKa was “approximately 7” and the “time to observed tyrosine phosphorylation after treatment” value [22] was ≤ 1 min.
For `c1ccc2[nH]ccc2c1` [indole], the “rescue of β-gly” value [23] is given as “fully rescued”.
In the case of `CN=C(N)N` [methylguanidine], the “rescued KM, within fold of the WT value” [1] is listed as ≤ 30 fold, the “rescued kcat, within fold of the WT value” [1] is listed as ≤ 1.5 fold and the EC50 ([1]; read-out: half-maximal rescue (Kr)) is listed as ~10 mM. For the same molecule, the “increase in kcat of the R127A mutant” value [8] was “up to 100 fold”.
For `Oc1ccccc1` [phenol], the “rescue of activity over baseline” value [24] is given as “about 10 fold”, the “rescued enzyme activity, % of WT activity” value [24] is given as “below 1%” and the “effect on pyridine product formation” value (Y319A TbtD) is given as “substantial increase in pyridine formation”.
For `c1ccncc1` [pyridine], the “restoration of R57G variant activity” value [10] is given as “not”.
In the case of `OC[C@@H](O)[C@@H](O)[C@H](O)[C@@H](O)CO` [sorbitol], the “rescue of I278T CBS by chemical chaperones” value (I278T CBS) is given as “partially rescued”.
In the case of `C[C@H](O)[C@H](O)[C@H]1CNc2nc(N)[nH]c(=O)c2N1` [tetrahydrobiopterin], the “rescue of mutant PAH by excess cofactor” value [25] is given as “rescue mutant forms of PAH”.
For `C[N+](C)(C)[O-]` [trimethylamine-N-oxide], the “extent of rescue in vivo” value [16] is listed as “weak”.
In the case of `CN1[C@@H](CC(=O)c2ccccc2)CCC[C@H]1C[C@H](O)c1ccccc1` [α-lobeline], the rescue of galactocerebrosidase (galactocerebrosidase) is given as “rescued”.
